Assays:
[1] = tested on: capsaicin aerosol-induced cough; test: Capsaicin aerosol-induced cough in conscious guinea pigs, 5 min aerosol pre-treatment; assay type: in vivo, guinea pig; conditions: for Reduction of number of capsaicin-induced cough responses compared with matched vehicle: 5 minute pre-treatment; for Change of mean latency of cough onset: capsaicin-induced cough
[2] = tested on: citric acid-induced cough responses; test: Therapeutic aerosol treatment after induction of cough by citric acid aerosol; assay type: in vivo, guinea pig; conditions: aerosol 10 mg/ml for 5 min, given 2 minutes after citric acid exposure began
Description: Vehicle or test agents were administered as aerosols (10 mg/ml; 5 minute duration) 2 minutes after exposure to citric acid aerosol began. Cough responses were recorded during a 15 minute observation period (t=0 to t=15 min.) from initiation of citric acid exposure.

[3] = tested on: citric acid-induced cough responses; test: Duration of anti-tussive effect against citric acid-induced cough, pre-treatment at various times; assay type: in vivo, guinea pig; conditions: 10 mg/ml aerosol
Description: Test agents or vehicle were administered as aerosol pre-treatments (10 mg/ml, 5 minute duration) at 5 minutes, 30 minutes, 1 hour, 2 hours and 4 hours prior to induction of cough responses by citric acid aerosol.

[4] = tested on: citric acid-induced cough responses; test: Citric acid aerosol-induced cough in conscious guinea-pigs, 5 min aerosol pre-treatment; assay type: in vivo, guinea-pig; conditions: for Mean latency of cough: time to onset of first cough after initiation of citric acid aerosol: 5 min pre-treatment; for Mean latency of cough: time to onset of first cough after initiation of citric acid aerosol / Total coughs: number of coughs over 15 min following initiation of 1M citric acid aerosol: mean ± SEM; for Inhibition of cough responses compared with matched vehicle pre-treated guinea pigs: Example 2, aerosol pre-treatment immediately before citric acid exposure; for Anti-tussive activity (in words): Example 2, experiment similar to Example 1
Excerpt: Male albino Dunkin-Hartley strain guinea-pigs (weight 300-400 g) were supplied by Harlan UK Ltd., Bicester, Oxon, UK.
The method used was modified from that described by Adcock J. J., Schneider C. and Smith T. W., “Effects of Morphine and a Novel Opioid Pentapeptide BW443C, on Cough, Nociception and Ventilation in the Unanaesthetized Guinea-pig”, Br. J. Pharmacol., 93, 93-100 (1988). Individual conscious guinea-pigs were placed unrestrained into a sealed purpose built perspex exposure chamber (3,000 cm^3 volume) and allowed to acclimatize prior to aerosol administration.
Cylinder air was introduced into the exposure chamber at a flow rate of 1 liter/min, maintained by a needle valve and monitored by a rotameter. From the rotameter the air passed through the cup of an ultrasonic nebulizer (DeVilbis UltraNeb 2000) which was used to generate aerosols of drug or citric acid at 0.15 ml/min. A Fleisch pneumotachograph, connected to a differential pressure transducer (Grass model PT5) was attached to the outflow from the exposure chamber and provided a measurement of airflow from the chamber. The differential pressure transducer was connected to a Grass polygraph from which a hard copy record was produced. The output from the polygraph was directed to a computerized data acquisition system (Poh-Ne-Mah) for real time recording of data. A tie-clip microphone was placed in the exposure chamber and connected via a pre-amplifier to a loudspeaker output to provide the observer with an audio monitor of responses.
Cough responses were induced by exposure to an aerosol of citric acid (1M) for 10 minutes. Animals were continuously monitored by trained observer, and the number of coughs were counted during a 15 minute period from commencement of the citric acid aerosol administration.
The three types of response were differentiated primarily by sound and visual observation. […] Data recorded for individual guinea-pigs on the Poh-Ne-Mah system was stored on an optical disk. Each cough was marked on the Grass polygraph paper trace, and from these record numbers, frequency and time of onset of coughs were determined. The cough response was defined by a characteristic coughing sound and behavior, associated with a marked biphasic pressure change.
Quantities of drugs were weighed out and dissolved in a vehicle. Equal volumes were aliquotted into sample tubes before being passed, together with another sample tube containing the same volume of vehicle, to an independent observer for coding. Pre-treatments were matched by concentration together with a vehicle control group. Five guinea-pigs were randomly allocated to each treatment group. […] The sequence of pre-treatment administration was determined according to a 4×4 Latin Square design.
Data presented as the mean ±SEM number of coughs produced by individual guinea-pigs within each group during the 15 minute observation period or mean±SEM latency of cough were analyzed using one way analysis of variance to compare mean responses between matched groups of animals (doses) and between unmatched groups (treatments) followed by the Tukey-Kramer multiple comparison test where appropriate.

[5] = tested on: citric acid-induced cough responses; test: Citric acid-induced cough responses in ozone-exposed conscious rabbits; assay type: in vivo, rabbit; conditions: rabbits exposed to ozone 3 ppm 1 hour, aerosol 10 mg/ml, citric acid 1.6 M, 10 minute count; vehicle 22.0±5.1
Description: Investigation of Antitussive Activity of Aerosolized Compound 1 on Citric Acid-induced Cough Responses in Conscious Rabbits
Twenty-two male New Zealand white rabbits were randomly allocated to either of two groups of 11 rabbits.
Pairs of rabbits (control versus test) were placed in individual exposure chambers with an airflow of 5 liter/min through the chambers.
Each rabbit was exposed to ozone (3 ppm) for 1 hour.
The rabbits were then immediately exposed to aerosols of either vehicle (chamber 1) or Compound 1 (10 mg/ml, chamber 2) at a nebulization rate of 0.9 ml/min.
Cough responses were induced with citric acid aerosol (1.6 M).
Coughs were counted during the 10 minute exposure to citric acid.

SMILES: C[N+](C)(CC(=O)Nc1ccccc1)CC(=O)Nc1ccccc1.[Cl-] [Compound 1, N,N-Bis-(phenylcarbamoylmethyl)dimethylammonium chloride]
- Reduction of number of capsaicin-induced cough responses compared with matched vehicle ([1]; aerosol 10 mg/ml): 25%
- Change of mean latency of cough onset ([1]; aerosol 10 mg/ml): no significant effect
- Reduction of number of capsaicin-induced cough responses compared with matched vehicle ([1]; aerosol 30 mg/ml): 76.9%
- Change of mean latency of cough onset ([1]; aerosol 30 mg/ml): 2.1 fold
- melting point: 177 to 178 °C
- Inhibition of number of cough responses between t=2 and t=10 minutes [2]: 70.8%
- Inhibition of total number of cough responses during the 15 minute observation period compared with matched vehicle ([2]; t=0 to t=15 min): 63.8%
- Inhibition of cough responses ([3]; pre-treatment 30 minutes before citric acid): 63%
- Inhibition of cough responses ([3]; pre-treatment 60 minutes before citric acid): 60.7%
- Inhibition of cough responses ([3]; pre-treatment 2 hours before citric acid): 44.0%
- Reduction in mean number of citric acid-induced cough responses ([3]; pre-treatment 4 hours before citric acid): 15%
- Inhibition of cough responses compared with matched vehicle pre-treated guinea pigs ([3]; pre-treatment immediately before citric acid exposure): 84.9%
- Increase of latency of cough onset ([3]; pre-treatment immediately prior to citric acid exposure): 3.3 fold
- Percentage reduction of the cough response compared with matched vehicle control groups ([4]; aerosol conc. 0.1 mg/ml): (25.3%)
- Mean latency of cough: time to onset of first cough after initiation of citric acid aerosol ([4]; aerosol conc. 0.1 mg/ml): 88 ± 6 s
- Total coughs: number of coughs over 15 min following initiation of 1M citric acid aerosol ([4]; aerosol conc. 0.1 mg/ml): 22.4 ± 6.0
- Cough frequency (in words) ([4]; aerosol conc. 1.0 mg/ml): frequency of coughs was reduced
- Percentage reduction of the cough response compared with matched vehicle control groups ([4]; aerosol conc. 1.0 mg/ml): (40.4%)
- Mean latency of cough: time to onset of first cough after initiation of citric acid aerosol ([4]; aerosol conc. 1.0 mg/ml): 103 ± 11 s
- Total coughs: number of coughs over 15 min following initiation of 1M citric acid aerosol ([4]; aerosol conc. 1.0 mg/ml): 16.8 ± 4.0
- Guinea-pigs in the group with cough responses completely inhibited ([4]; aerosol conc. 10 mg/ml): 4 of the 5
- Latency of cough onset (in words) ([4]; aerosol conc. 10 mg/ml): prolonged the latency of cough onset
- Percentage reduction of the cough response compared with matched vehicle control groups ([4]; aerosol conc. 10 mg/ml): (97.6%)
- Sneezing in animals that did not cough ([4]; aerosol conc. 10 mg/ml): marked absence of sneezing
- Mean latency of cough: time to onset of first cough after initiation of citric acid aerosol ([4]; aerosol conc. 10 mg/ml): 778 ± 137^-- seconds
- Total coughs: number of coughs over 15 min following initiation of 1M citric acid aerosol ([4]; aerosol conc. 10 mg/ml): 0.6 ± 0.6^--
- Number of citric acid-induced cough responses, mean ± SEM [5]: 2.7±0.9 coughs

SMILES: Cc1cccc(C)c1NC(=O)C[N+](C)(C)C.[Cl-] [Compound 2, N-(2,6-dimethylphenylcarbamoylmethyl) trimethylammonium chloride]
- Inhibition of cough responses compared with matched vehicle pre-treated guinea pigs [4]: over 80%
- Anti-tussive activity (in words) [4]: effective

SMILES: CC[N+](CC)(CC)CC(=O)Nc1c(C)cccc1C.[Cl-] [Compound 3, N-(2,6-dimethylphenylcarbamoylmethyl) triethylammonium chloride]
- Inhibition of cough responses compared with matched vehicle pre-treated guinea pigs [4]: over 70%
- Anti-tussive activity (in words) [4]: effective

SMILES: CCN(CC)CC(=O)Nc1c(C)cccc1C [Lidocaine, lidocaine, reference compound]
- Reduction of number of capsaicin-induced cough responses compared with matched vehicle ([1]; aerosol 10 mg/ml): 42.2%
- Change of mean latency of cough onset ([1]; aerosol 10 mg/ml): 1.2 fold
- Reduction of number of capsaicin-induced cough responses compared with matched vehicle ([1]; aerosol 30 mg/ml): 10.3%
- Change of mean latency of cough onset ([1]; aerosol 30 mg/ml): 0.8 fold

— patent US6362197B1, “Compositions and method for treatment of cough” (Cardiome Pharma Corp., priority 1998, dated 2002)
